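Protocol summary: plate cells (96-well), add compound at 5 concentrations, incubate 48 h, interpolate endpoints linearly. The concentration for 50% growth inhibition is given as GI50. At the TGI there is no net growth.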
Key:
Experiment in all cases: NCI-60 cell line screen, 48 h
RXF 393 renal = test system: RXF 393 renal
MCF7 breast = test system: MCF7 breast
NCI-H460 lung = test system: NCI-H460 lung
NCI-H23 lung = test system: NCI-H23 lung
SNB-75 CNS = test system: SNB-75 CNS
A498 renal = test system: A498 renal
ACHN renal = test system: ACHN renal
SK-MEL-2 melanoma = test system: SK-MEL-2 melanoma
BT-549 breast = test system: BT-549 breast
SN12C renal = test system: SN12C renal
LOX IMVI melanoma = test system: LOX IMVI melanoma
TK-10 renal = test system: TK-10 renal
MOLT-4 leukemia = test system: MOLT-4 leukemia
SK-MEL-28 melanoma = test system: SK-MEL-28 melanoma
OVCAR-8 ovarian = test system: OVCAR-8 ovarian
HCC-2998 colon = test system: HCC-2998 colon
SF-539 CNS = test system: SF-539 CNS
IGROV1 ovarian = test system: IGROV1 ovarian
MDA-MB-435 = test system: MDA-MB-435
SNB-19 CNS = test system: SNB-19 CNS
A549 NSCLC = test system: A549 NSCLC
M14 melanoma = test system: M14 melanoma
HS 578T breast = test system: HS 578T breast
RPMI-8226 leukemia = test system: RPMI-8226 leukemia
SF-268 CNS = test system: SF-268 CNS
UACC-257 melanoma = test system: UACC-257 melanoma
HOP-92 NSCLC = test system: HOP-92 NSCLC
DU-145 prostate = test system: DU-145 prostate
OVCAR-4 ovarian = test system: OVCAR-4 ovarian
UO-31 renal = test system: UO-31 renal
PC-3 prostate = test system: PC-3 prostate
OVCAR-5 ovarian = test system: OVCAR-5 ovarian
HCT-116 colon = test system: HCT-116 colon
SW-620 colon = test system: SW-620 colon
UACC-62 melanoma = test system: UACC-62 melanoma
HCT-15 colon = test system: HCT-15 colon
MDA-MB-231 breast = test system: MDA-MB-231 breast
786-0 renal = test system: 786-0 renal
OVCAR-3 ovarian = test system: OVCAR-3 ovarian
EKVX NSCLC = test system: EKVX NSCLC
HL-60(TB) leukemia = test system: HL-60(TB) leukemia
SK-OV-3 ovarian = test system: SK-OV-3 ovarian
HT29 colon = test system: HT29 colon
COLO 205 colon = test system: COLO 205 colon
KM12 colon = test system: KM12 colon
SK-MEL-5 melanoma = test system: SK-MEL-5 melanoma
CCRF-CEM leukemia = test system: CCRF-CEM leukemia
SF-295 CNS = test system: SF-295 CNS
U251 CNS = test system: U251 CNS
SR leukemia = test system: SR leukemia
T-47D breast = test system: T-47D breast
NCI/ADR-RES ovarian = test system: NCI/ADR-RES ovarian
HOP-62 NSCLC = test system: HOP-62 NSCLC
K-562 leukemia = test system: K-562 leukemia
CAKI-1 renal = test system: CAKI-1 renal
NCI-H226 lung = test system: NCI-H226 lung

`COc1cc2ncnc(-n3ncc4cc(NC(=O)Nc5ccccc5)ccc43)c2cc1OC` gave a GI50 (RXF 393 renal) of 1040 nM, a TGI (RXF 393 renal) of 2760 nM and a GI50 (MCF7 breast) of 234 nM. The TGI (MCF7 breast) was 1900 nM, the GI50 (NCI-H460 lung) was 706 nM and the TGI (NCI-H460 lung) was 16400 nM. It also gave a GI50 (NCI-H23 lung) of 1300 nM, a TGI (NCI-H23 lung) of 4400 nM and a GI50 (SNB-75 CNS) of 191 nM. The TGI (SNB-75 CNS) was 5690 nM, the GI50 (A498 renal) was 210 nM and the TGI (A498 renal) was 896 nM. The GI50 (ACHN renal) was 1630 nM, the TGI (ACHN renal) was 11100 nM and the GI50 (SK-MEL-2 melanoma) was 1340 nM. For the same compound, the TGI (SK-MEL-2 melanoma) was 3510 nM, the GI50 (BT-549 breast) was 1550 nM and the TGI (BT-549 breast) was 12000 nM. It also gave a GI50 (SN12C renal) of 1140 nM, a TGI (SN12C renal) of 5780 nM and a GI50 (LOX IMVI melanoma) of 722 nM. It also gave a TGI (LOX IMVI melanoma) of 2750 nM, a GI50 (TK-10 renal) of 724 nM and a TGI (TK-10 renal) of 2560 nM. The GI50 (MOLT-4 leukemia) was 860 nM, the TGI (MOLT-4 leukemia) was 3560 nM and the GI50 (SK-MEL-28 melanoma) was 1380 nM. It also gave a TGI (SK-MEL-28 melanoma) of 4330 nM, a GI50 (OVCAR-8 ovarian) of 5170 nM and a TGI (OVCAR-8 ovarian) of 28300 nM. For the same compound, the GI50 (HCC-2998 colon) was 1880 nM, the TGI (HCC-2998 colon) was 11200 nM and the GI50 (SF-539 CNS) was 230 nM. For the same compound, the TGI (SF-539 CNS) was 17300 nM, the GI50 (IGROV1 ovarian) was 427 nM and the TGI (IGROV1 ovarian) was 4620 nM. It also gave a GI50 (MDA-MB-435) of 1400 nM, a TGI (MDA-MB-435) of 33900 nM and a GI50 (SNB-19 CNS) of 2290 nM. For the same compound, the TGI (SNB-19 CNS) was 17700 nM, the GI50 (A549 NSCLC) was 1790 nM and the TGI (A549 NSCLC) was 8740 nM. The GI50 (M14 melanoma) was 1100 nM, the TGI (M14 melanoma) was 4220 nM and the GI50 (HS 578T breast) was 299 nM. The TGI (HS 578T breast) was 3370 nM, the GI50 (RPMI-8226 leukemia) was 934 nM and the TGI (RPMI-8226 leukemia) was 12000 nM. For the same compound, the GI50 (SF-268 CNS) was 1550 nM, the TGI (SF-268 CNS) was 11200 nM and the GI50 (UACC-257 melanoma) was 2320 nM. It also gave a TGI (UACC-257 melanoma) of 5130 nM, a GI50 (HOP-92 NSCLC) of 707 nM and a TGI (HOP-92 NSCLC) of 4150 nM. For the same compound, the GI50 (DU-145 prostate) was 867 nM, the TGI (DU-145 prostate) was 11400 nM and the GI50 (OVCAR-4 ovarian) was 1010 nM. For the same compound, the TGI (OVCAR-4 ovarian) was 4260 nM, the GI50 (UO-31 renal) was 499 nM and the TGI (UO-31 renal) was 2840 nM. For the same compound, the GI50 (PC-3 prostate) was 1090 nM, the TGI (PC-3 prostate) was 3360 nM and the GI50 (OVCAR-5 ovarian) was 1240 nM. It also gave a TGI (OVCAR-5 ovarian) of 13800 nM, a GI50 (HCT-116 colon) of 1410 nM and a TGI (HCT-116 colon) of 4820 nM. It also gave a GI50 (SW-620 colon) of 3070 nM, a TGI (SW-620 colon) of 17900 nM and a GI50 (UACC-62 melanoma) of 1230 nM. The TGI (UACC-62 melanoma) was 6270 nM, the GI50 (HCT-15 colon) was 579 nM and the TGI (HCT-15 colon) was 11100 nM. It also gave a GI50 (MDA-MB-231 breast) of 1390 nM, a TGI (MDA-MB-231 breast) of 4920 nM and a GI50 (786-0 renal) of 1300 nM. It also gave a TGI (786-0 renal) of 4340 nM, a GI50 (OVCAR-3 ovarian) of 2080 nM and a TGI (OVCAR-3 ovarian) of 13100 nM. It also gave a GI50 (EKVX NSCLC) of 1590 nM, a TGI (EKVX NSCLC) of 7300 nM and a GI50 (HL-60(TB) leukemia) of 1570 nM. For the same compound, the TGI (HL-60(TB) leukemia) was 4520 nM, the GI50 (SK-OV-3 ovarian) was 420 nM and the TGI (SK-OV-3 ovarian) was 4600 nM. For the same compound, the GI50 (HT29 colon) was 615 nM, the TGI (HT29 colon) was 10900 nM and the GI50 (COLO 205 colon) was 1320 nM. It also gave a TGI (COLO 205 colon) of 4530 nM, a GI50 (KM12 colon) of 207 nM and a TGI (KM12 colon) of 5270 nM. For the same compound, the GI50 (SK-MEL-5 melanoma) was 5220 nM, the TGI (SK-MEL-5 melanoma) was 21300 nM and the GI50 (CCRF-CEM leukemia) was 2560 nM. The TGI (CCRF-CEM leukemia) was 13600 nM, the GI50 (SF-295 CNS) was 730 nM and the TGI (SF-295 CNS) was 5870 nM. For the same compound, the GI50 (U251 CNS) was 1270 nM, the TGI (U251 CNS) was 3230 nM and the GI50 (SR leukemia) was 2030 nM. The TGI (SR leukemia) was 15300 nM, the GI50 (T-47D breast) was 183 nM and the TGI (T-47D breast) was 1370 nM. It also gave a GI50 (NCI/ADR-RES ovarian) of 2520 nM, a TGI (NCI/ADR-RES ovarian) of 17600 nM and a GI50 (HOP-62 NSCLC) of 1300 nM. It also gave a GI50 (K-562 leukemia) of 2860 nM, a TGI (K-562 leukemia) of 15500 nM and a GI50 (CAKI-1 renal) of 2080 nM. For the same compound, the TGI (CAKI-1 renal) was 12100 nM, the GI50 (NCI-H226 lung) was 1070 nM and the TGI (NCI-H226 lung) was 4060 nM.
